Experimental data published in patent US7435837B2, “Dihydrobenzofuranyl alkanamine derivatives and methods for using same” (Wyeth, priority 2003, dated 2008).

target: T1, human 5-hydroxytryptamine-2C (h5-HT2C) receptor (Homo sapiens, UniProt P28335); experiment: [125I]DOI binding to membranes of CHO cells expressing the human 5-HT2C receptor; conditions: [125I]DOI radioligand, CHO cell membranes, room temperature 60 min; read-out: 5-HT2C Affinity Ki
T1 construct: expressed in transfected cells; host or cells: CHO (Chinese Hamster Ovary) cells; membranes
T1 sequence (P28335 33-458): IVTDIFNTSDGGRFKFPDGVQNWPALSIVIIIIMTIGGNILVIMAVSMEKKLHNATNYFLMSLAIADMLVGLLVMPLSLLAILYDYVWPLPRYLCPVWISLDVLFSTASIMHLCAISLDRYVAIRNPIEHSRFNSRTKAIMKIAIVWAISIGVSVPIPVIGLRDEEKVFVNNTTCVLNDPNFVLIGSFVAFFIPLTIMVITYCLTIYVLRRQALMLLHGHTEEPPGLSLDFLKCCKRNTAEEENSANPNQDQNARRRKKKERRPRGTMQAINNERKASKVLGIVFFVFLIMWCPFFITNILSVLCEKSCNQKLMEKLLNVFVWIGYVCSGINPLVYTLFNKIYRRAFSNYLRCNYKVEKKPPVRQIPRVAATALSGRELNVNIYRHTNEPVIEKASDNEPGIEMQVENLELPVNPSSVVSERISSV

With `NCC1Cc2cc(C(F)(F)F)cc(-c3cccc(Cl)c3)c2O1` (racemic) [Example 320, (±)-{[5-(trifluoromethyl)-7-(3-chlorophenyl)-2,3-dihydro-1-benzofuran-2-yl]methyl}amine] as the molecule, how does the Ki read?
The Ki was 107 nM.

Which Ki does the source give for `COc1cccc(-c2cc(C(F)(F)F)cc3c2OC(CN)C3)c1` (racemic) [Example 321, (±)-{[5-(trifluoromethyl)-7-(3-methoxyphenyl)-2,3-dihydro-1-benzofuran-2-yl]methyl}amine] here?
The Ki was 59 nM.

For `NCC1Cc2cc(C(F)(F)F)cc(-c3cccc(C(F)(F)F)c3)c2O1` (racemic) [Example 322, (±)-{[5-(trifluoromethyl)-7-(3-(trifluoromethyl)phenyl)-2,3-dihydro-1-benzofuran-2-yl]methyl}amine], which Ki is on record?
Its Ki is 427 nM.

`Cc1ccc(-c2cc(C(F)(F)F)cc3c2OC(CN)C3)cc1` (racemic) [Example 323, (±)-{[5-(trifluoromethyl)-7-(4-methylphenyl)-2,3-dihydro-1-benzofuran-2-yl]methyl}amine] was tested. Which Ki did it give?
The Ki was 161 nM.

`NCC1Cc2cc(C(F)(F)F)cc(-c3ccc(F)cc3)c2O1` (racemic) [Example 324, (±)-{[5-(trifluoromethyl)-7-(4-fluorophenyl)-2,3-dihydro-1-benzofuran-2-yl]methyl}amine] was tested. Which Ki did it give?
Its Ki is 60 nM.

With `NCC1Cc2cc(C(F)(F)F)cc(-c3ccc(Cl)cc3)c2O1` (racemic) [Example 325, (±)-{[5-(trifluoromethyl)-7-(4-chlorophenyl)-2,3-dihydro-1-benzofuran-2-yl]methyl}amine] as the molecule, how does the Ki read?
Its Ki is 320 nM.

For `NCC1Cc2cc(C(F)(F)F)cc(-c3ccc(C(F)(F)F)cc3)c2O1` (racemic) [Example 327, (±)-{[5-(trifluoromethyl)-7-(4-(trifluoromethyl)phenyl)-2,3-dihydro-1-benzofuran-2-yl]methyl}amine], which Ki is on record?
Its Ki is 255 nM.

With `Cc1cccc(-c2cc(C(F)(F)F)cc3c2OC(CN)C3)c1C` (racemic) [Example 328, (±)-{[7-(2,3-dimethylphenyl)-5-(trifluoromethyl)-2,3-dihydro-1-benzofuran-2-yl]methyl}amine] as the molecule, how does the Ki read?
The Ki was 61 nM.

How did the Ki turn out when `NCC1Cc2cc(C(F)(F)F)cc(-c3cccc(F)c3F)c2O1` (racemic) [Example 329, (±)-{[7-(2,3-difluorophenyl)-5-(trifluoromethyl)-2,3-dihydro-1-benzofuran-2-yl]methyl}amine] was run?
Its Ki is 87 nM.

`NCC1Cc2cc(C(F)(F)F)cc(-c3cccc(Cl)c3Cl)c2O1` (racemic) [Example 330, (±)-{[7-(2,3-dichlorophenyl)-5-(trifluoromethyl)-2,3-dihydro-1-benzofuran-2-yl]methyl}amine] was tested. Which Ki did it give?
The Ki was 88 nM.

How did the Ki turn out when `NCC1Cc2cc(C(F)(F)F)cc(-c3ccc(F)c(F)c3)c2O1` (racemic) [Example 334, (±)-{[7-(3,4-difluorophenyl)-5-(trifluoromethyl)-2,3-dihydro-1-benzofuran-2-yl]methyl}amine] was run?
Its Ki is 324 nM.

Which Ki does the source give for `NCC1Cc2cc(C(F)(F)F)cc(-c3ccc(F)c(Cl)c3)c2O1` (racemic) [Example 335, (±)-{[7-(3-chloro-4-fluorophenyl)-5-(trifluoromethyl)-2,3-dihydro-1-benzofuran-2-yl]methyl}amine] here?
Its Ki is 192 nM.

Which Ki does the source give for `CCCCc1ccc(-c2cc(C(F)(F)F)cc3c2OC(CN)C3)cc1` (racemic) [Example 339, (±)-{[7-(4-butylphenyl)-5-(trifluoromethyl)-2,3-dihydro-1-benzofuran-2-yl]methyl}amine] here?
The Ki was 328 nM.

For `N#Cc1ccc(-c2cc(C(F)(F)F)cc3c2OC(CN)C3)cc1` (racemic) [Example 340, (±)-4-[2-(aminomethyl)-5-(trifluoromethyl)-2,3-dihydro-1-benzofuran-7-yl]benzonitrile], which Ki is on record?
The Ki was 88 nM.

How did the Ki turn out when `NCC1Cc2cc(-c3ccccc3)cc(-c3ccccc3Cl)c2O1` (racemic) [Example 345, (±)-{[7-(2-chlorophenyl)-5-phenyl-2,3-dihydro-1-benzofuran-2-yl]methyl}amine] was run?
The Ki was 98 nM.

Which Ki does the source give for `NCC1Cc2cc(-c3ccccc3)cc(-c3ccccc3F)c2O1` (racemic) [Example 348, (±)-{[7-(2-fluorophenyl)-5-phenyl-2,3-dihydro-1-benzofuran-2-yl]methyl}amine] here?
The Ki was 529 nM.

Which Ki does the source give for `NCC1Cc2cc(-c3ccccc3)cc(-c3cccc(F)c3)c2O1` (racemic) [Example 349, (±)-{[7-(3-fluorophenyl)-5-phenyl-2,3-dihydro-1-benzofuran-2-yl]methyl}amine] here?
The Ki was 760 nM.

For `NCC1Cc2cc(-c3ccccc3)cc(-c3ccc(F)cc3)c2O1` (racemic) [Example 350, (±)-{[7-(4-fluorophenyl)-5-phenyl-2,3-dihydro-1-benzofuran-2-yl]methyl}amine], which Ki is on record?
Its Ki is 497 nM.

With `Cc1ccccc1-c1cc(-c2ccccc2)cc2c1OC(CN)C2` (racemic) [Example 351, (±)-{[7-(2-methylphenyl)-5-phenyl-2,3-dihydro-1-benzofuran-2-yl]methyl}amine] as the molecule, how does the Ki read?
Its Ki is 87 nM.

How did the Ki turn out when `Cc1cccc(-c2cc(-c3ccccc3)cc3c2OC(CN)C3)c1` (racemic) [Example 352, (±)-{[7-(3-methylphenyl)-5-phenyl-2,3-dihydro-1-benzofuran-2-yl]methyl}amine] was run?
The Ki was 876 nM.

Which Ki does the source give for `Cc1ccc(-c2cc(-c3ccccc3)cc3c2OC(CN)C3)cc1` (racemic) [Example 353, (±)-{[7-(4-methylphenyl)-5-phenyl-2,3-dihydro-1-benzofuran-2-yl]methyl}amine] here?
The Ki was 845 nM.

For `NCC1Cc2cc(-c3ccccc3)cc(-c3ccc(F)cc3F)c2O1` (racemic) [Example 354, (±)-{[7-(2,4-difluorophenyl)-5-phenyl-2,3-dihydro-1-benzofuran-2-yl]methyl}amine], which Ki is on record?
Its Ki is 610 nM.

How did the Ki turn out when `NCC1Cc2cc(-c3ccccc3)cc(-c3cc(Cl)ccc3Cl)c2O1` (racemic) [Example 355, (±)-{[7-(2,5-dichlorophenyl)-5-phenyl-2,3-dihydro-1-benzofuran-2-yl]methyl}amine] was run?
Its Ki is 385 nM.

`COc1cc2c(c(-c3ccccc3C)c1)OC(CN)C2` (racemic) [Example 358, (±)-{[7-(2-methylphenyl)-5-methoxy-2,3-dihydro-1-benzofuran-2-yl]methyl}amine] was tested. Which Ki did it give?
Its Ki is 7 nM.

With `Cc1ccccc1-c1cc(F)c2c(c1)CC(CN)O2` (racemic) [Example 375, (±)-{[7-fluoro-5-(2-methylphenyl)-2,3-dihydro-1-benzofuran-2-yl]methyl}amine] as the molecule, how does the Ki read?
The Ki was 71 nM.

With `NCC1Cc2cc(-c3ccccc3Cl)cc(F)c2O1` (racemic) [Example 376, (±)-{[7-fluoro-5-(2-chlorophenyl)-2,3-dihydro-1-benzofuran-2-yl]methyl}amine] as the molecule, how does the Ki read?
Its Ki is 88 nM.

For `NCC1Cc2cc(-c3ccccc3F)cc(F)c2O1` (racemic) [Example 377, (±)-{[7-fluoro-5-(2-fluorophenyl)-2,3-dihydro-1-benzofuran-2-yl]methyl}amine], which Ki is on record?
The Ki was 194 nM.

How did the Ki turn out when `NCC1Cc2cc(-c3ccccc3C(F)(F)F)cc(F)c2O1` (racemic) [Example 378, (±)-({7-fluoro-5-[2-(trifluoromethyl)phenyl]-2,3-dihydro-1-benzofuran-2-yl}methyl)amine] was run?
Its Ki is 201 nM.

`COc1ccccc1-c1cc(F)c2c(c1)CC(CN)O2` (racemic) [Example 379, (±)-{[7-fluoro-5-(2-methoxyphenyl)-2,3-dihydro-1-benzofuran-2-yl]methyl}amine] was tested. Which Ki did it give?
The Ki was 453 nM.

For `Cc1cccc(-c2cc(F)c3c(c2)CC(CN)O3)c1` (racemic) [Example 380, (±)-{[7-fluoro-5-(3-methylphenyl)-2,3-dihydro-1-benzofuran-2-yl]methyl}amine], which Ki is on record?
Its Ki is 424 nM.

How did the Ki turn out when `NCC1Cc2cc(-c3cccc(F)c3)cc(F)c2O1` (racemic) [Example 381, (±)-{[7-fluoro-5-(3-fluorophenyl)-2,3-dihydro-1-benzofuran-2-yl]methyl}amine] was run?
Its Ki is 923 nM.

How did the Ki turn out when `NCC1Cc2cc(-c3cccc(Cl)c3)cc(F)c2O1` (racemic) [Example 382, (±)-{[7-fluoro-5-(3-chlorophenyl)-2,3-dihydro-1-benzofuran-2-yl]methyl}amine] was run?
The Ki was 801 nM.

Which Ki does the source give for `NCC1Cc2cc(-c3cccc(C(F)(F)F)c3)cc(F)c2O1` (racemic) [Example 383, (±)-({7-fluoro-5-[3-(trifluoromethyl)phenyl]-2,3-dihydro-1-benzofuran-2-yl}methyl)amine] here?
The Ki was 1760 nM.

How did the Ki turn out when `COc1cccc(-c2cc(F)c3c(c2)CC(CN)O3)c1` (racemic) [Example 384, (±)-{[7-fluoro-5-(3-methoxyphenyl)-2,3-dihydro-1-benzofuran-2-yl]methyl}amine] was run?
The Ki was 1260 nM.

With `Cc1ccc(-c2cc(F)c3c(c2)CC(CN)O3)cc1` (racemic) [Example 385, (±)-{[7-fluoro-5-(4-methylphenyl)-2,3-dihydro-1-benzofuran-2-yl]methyl}amine] as the molecule, how does the Ki read?
Its Ki is 1350 nM.

`NCC1Cc2cc(-c3ccc(Cl)cc3)cc(F)c2O1` (racemic) [Example 386, (±)-{[7-fluoro-5-(4-chlorophenyl)-2,3-dihydro-1-benzofuran-2-yl]methyl}amine] was tested. Which Ki did it give?
Its Ki is 1020 nM.

With `NCC1Cc2cc(-c3ccc(F)cc3)cc(F)c2O1` (racemic) [Example 387, (±)-{[7-fluoro-5-(4-fluorophenyl)-2,3-dihydro-1-benzofuran-2-yl]methyl}amine] as the molecule, how does the Ki read?
The Ki was 1550 nM.

With `NCC1Cc2cc(-c3ccc(C(F)(F)F)cc3)cc(F)c2O1` (racemic) [Example 388, (±)-({7-fluoro-5-[4-(trifluoromethyl)phenyl]-2,3-dihydro-1-benzofuran-2-yl}methyl)amine] as the molecule, how does the Ki read?
Its Ki is 1580 nM.

`COc1ccc(-c2cc(F)c3c(c2)CC(CN)O3)cc1` (racemic) [Example 389, (±)-{[7-fluoro-5-(4-methoxyphenyl)-2,3-dihydro-1-benzofuran-2-yl]methyl}amine] was tested. Which Ki did it give?
The Ki was 1620 nM.
